In PubChem BioAssay AID248 (DTP/NCI, 2004):
Toxic doses and inconclusive results are not listed. Rule as the data show it: active = T/C of 150% or more; inactive = T/C below 125%.

System: L1210 leukemia ip in BDF1 mice, survival T/C
Assay: NCI In Vivo Anticancer Drug Screen. Data for tumor model L1210 Leukemia (intraperitoneal) in B6D2F1 (BDF1) mice
Conditions: endpoint: mean survival time, higher = longer survival
Method in brief: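 Antitumor effect is assessed in tumor-bearing animals. Survival in the compound arm is compared with a vehicle-dosed control arm and expressed as their quotient.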

[1] = dose: 50.0 mg/kg/injection, schedule: Q01DX001 (ip), vehicle: saline
[2] = dose: 100.0 mg/kg/injection, schedule: Q01DX001 (ip), vehicle: saline
[3] = dose: 200.0 mg/kg/injection, schedule: Q01DX001 (ip), vehicle: saline
[4] = dose: 400.0 mg/kg/injection, schedule: Q01DX001 (ip), vehicle: saline
[5] = dose: 100.0 mg/kg/injection, schedule: Q01DX009 (ip), vehicle: Klucel (hydroxypropylcellulose) (HPC)
[6] = dose: 200.0 mg/kg/injection, schedule: Q01DX009 (ip), vehicle: Klucel (hydroxypropylcellulose) (HPC)
[7] = dose: 400.0 mg/kg/injection, schedule: Q01DX009 (ip), vehicle: Klucel (hydroxypropylcellulose) (HPC)
[8] = dose: 50.0 mg/kg/injection, schedule: Q01DX001 (ip), vehicle: carboxymethylcellulose (CMC)
[9] = dose: 100.0 mg/kg/injection, schedule: Q01DX009 (ip), vehicle: saline with Tween-80
[10] = dose: 100.0 mg/kg/injection, schedule: Q04DX003 (ip), vehicle: saline with Tween-80
[11] = dose: 200.0 mg/kg/injection, schedule: Q01DX009 (ip), vehicle: saline with Tween-80
[12] = dose: 200.0 mg/kg/injection, schedule: Q04DX003 (ip), vehicle: saline with Tween-80
[13] = dose: 400.0 mg/kg/injection, schedule: Q01DX009 (ip), vehicle: saline with Tween-80
[14] = dose: 400.0 mg/kg/injection, schedule: Q04DX003 (ip), vehicle: saline with Tween-80
[15] = dose: 25.0 mg/kg/injection, schedule: Q01DX009 (ip), vehicle: saline with Tween-80
[16] = dose: 100.0 mg/kg/injection, schedule: Q04DX003 (ip), vehicle: saline
[17] = dose: 200.0 mg/kg/injection, schedule: Q04DX003 (ip), vehicle: saline
[18] = dose: 400.0 mg/kg/injection, schedule: Q04DX003 (ip), vehicle: saline

Measured: T/C

C1CCC2(CC1)SC1(CCCCC1)SC1(CCCCC1)S2
inactive: dose: 100.0 mg/kg/injection, schedule: Q01DX009 (ip), vehicle: other 94 % of control | dose: 100.0 mg/kg/injection, schedule: Q04DX003 (ip), vehicle: other 95 % of control | dose: 200.0 mg/kg/injection, schedule: Q01DX009 (ip), vehicle: other 95 % of control | dose: 200.0 mg/kg/injection, schedule: Q04DX003 (ip), vehicle: other 97 % of control | dose: 400.0 mg/kg/injection, schedule: Q01DX009 (ip), vehicle: other 92 % of control | dose: 400.0 mg/kg/injection, schedule: Q04DX003 (ip), vehicle: other 97 % of control

Clc1cccc(Cl)c1/C=N/Nc1nnc(N/N=C/c2c(Cl)cccc2Cl)c2ccccc12
inactive: [1] 103 % of control | [2] 100 % of control | [3] 100 % of control | [4] 103 % of control

O=S(=O)(c1ccccc1)C1CCCC1Cl (stereo unspecified)
inactive: [2] 104 % of control | [3] 96 % of control | [4] 100 % of control

c1ccc(P(CCP(CCP(c2ccccc2)c2ccccc2)CCP(c2ccccc2)c2ccccc2)c2ccccc2)cc1
inactive: [5] 89 % of control | [6] 89 % of control | [7] 88 % of control

O=C(CCCC(=O)N/N=C/c1cc(Br)cc(Br)c1)N/N=C\c1cc(Br)cc(Br)c1
inactive: [1] 96 % of control | [2] 98 % of control | [3] 96 % of control | [4] 90 % of control

C[n+]1c(/C=C\C=C\N2CCCCC2)sc2ccccc21
inactive: dose: 1.25 mg/kg/injection, schedule: Q04DX002 (ip), vehicle: saline with Tween-80 97 % of control | dose: 2.5 mg/kg/injection, schedule: Q04DX002 (ip), vehicle: saline with Tween-80 108 % of control

N#C/C(=C/c1ccccc1)C(=O)O
inactive: [8] 87 % of control | dose: 100.0 mg/kg/injection, schedule: Q01DX001 (ip), vehicle: carboxymethylcellulose (CMC) 96 % of control | dose: 200.0 mg/kg/injection, schedule: Q01DX001 (ip), vehicle: carboxymethylcellulose (CMC) 107 % of control

Cc1ccc(C)c(-n2c(-c3ccc(Br)cc3)csc2=NC(=O)c2ccccc2F)c1
inactive: [9] 102 % of control | [10] 101 % of control | [11] 101 % of control | [12] 98 % of control | [13] 93 % of control | [14] 102 % of control

CC(=O)NC1CON=C1OS(=O)(=O)c1ccc(C)cc1 (stereo unspecified)
inactive: dose: 100.0 mg/kg/injection, schedule: Q01DX001 (ip), vehicle: saline with Tween-80 89 % of control | dose: 200.0 mg/kg/injection, schedule: Q01DX001 (ip), vehicle: saline with Tween-80 89 % of control | dose: 400.0 mg/kg/injection, schedule: Q01DX001 (ip), vehicle: saline with Tween-80 100 % of control

CC(SC(C)C(=O)NN=C1CCSCC1)C(=O)NN=C1CCSCC1 (stereo unspecified)
inactive: dose: 55.0 mg/kg/injection, schedule: Q01DX Z (ip), vehicle: methylcellulose (MC) 104 % of control | dose: 83.0 mg/kg/injection, schedule: Q01DX Z (ip), vehicle: methylcellulose (MC) 91 % of control | dose: 125.0 mg/kg/injection, schedule: Q01DX Z (ip), vehicle: methylcellulose (MC) 114 % of control

COc1ccc(OC)c(/C=N\NC(=O)N/N=C/c2cc(OC)ccc2OC)c1
inactive: dose: 100.0 mg/kg/injection, schedule: Q04DX002 (ip), vehicle: saline with Tween-80 101 % of control | dose: 200.0 mg/kg/injection, schedule: Q04DX002 (ip), vehicle: saline with Tween-80 101 % of control | dose: 400.0 mg/kg/injection, schedule: Q04DX002 (ip), vehicle: saline with Tween-80 95 % of control

CCOC(=O)C1C(O)=C(P(=O)(C2=C(O)C(C(=O)OCC)C(c3ccc(OC(C)=O)cc3)C(C(=O)O)C2=O)N(CCCl)CCCl)C(=O)C(C(=O)O)C1c1ccc(OC(C)=O)cc1 (stereo unspecified)
inactive: [5] 97 % of control | dose: 100.0 mg/kg/injection, schedule: Q04DX003 (ip), vehicle: Klucel (hydroxypropylcellulose) (HPC) 98 % of control | [6] 102 % of control | dose: 200.0 mg/kg/injection, schedule: Q04DX003 (ip), vehicle: Klucel (hydroxypropylcellulose) (HPC) 98 % of control | [7] 102 % of control | dose: 400.0 mg/kg/injection, schedule: Q04DX003 (ip), vehicle: Klucel (hydroxypropylcellulose) (HPC) 108 % of control

CNC(=O)NNC(=O)c1ccc(Cl)cc1
inactive: [15] 91 % of control | dose: 50.0 mg/kg/injection, schedule: Q01DX009 (ip), vehicle: saline with Tween-80 94 % of control

O=C1CSCCN1
inactive: [16] 101 % of control | [17] 101 % of control | [18] 98 % of control

C/C(=N\N)c1ccc(Cl)cc1
inactive: dose: 6.25 mg/kg/injection, schedule: Q01DX009 (ip), vehicle: saline with Tween-80 93 % of control | dose: 12.5 mg/kg/injection, schedule: Q01DX009 (ip), vehicle: saline with Tween-80 101 % of control | [15] 96 % of control

CCCCOC(=S)Nc1ccc(S(=O)(=O)c2ccc(NC(=S)OCCCC)cc2)cc1
inactive: [2] 108 % of control | [3] 102 % of control | [4] 104 % of control

O=C(NCCCl)NC1CCS(=O)(=O)C1 (stereo unspecified)
inactive: dose: 100.0 mg/kg/injection, schedule: Q01DX001 (ip), vehicle: other 98 % of control | dose: 200.0 mg/kg/injection, schedule: Q01DX001 (ip), vehicle: other 98 % of control | dose: 400.0 mg/kg/injection, schedule: Q01DX001 (ip), vehicle: other 98 % of control

O=C(Nc1cccc(C(F)(F)F)c1)c1ccc(C(=O)Nc2cccc(C(F)(F)F)c2)cc1
inactive: [10] 95 % of control | [12] 90 % of control | [13] 96 % of control | [14] 95 % of control

NC(=O)C1CCCCC1C(N)=O (stereo unspecified)
inactive: [10] 96 % of control | [12] 102 % of control | [14] 96 % of control

CCOC(=O)C(C)(C)C(O)C(C)C (stereo unspecified)
inactive: [9] 106 % of control | [11] 103 % of control | [13] 93 % of control

Oc1ccc(F)c2cccnc12
inactive: [8] 101 % of control

CC(C)c1cc(C(C)C)c(S(=O)(=O)Cl)c(C(C)C)c1
inactive: [1] 98 % of control | [2] 95 % of control | [3] 95 % of control | [4] 98 % of control

O=[N+]([O-])c1cc(Cl)c(Cl)cc1NCCCO
inactive: [2] 95 % of control | dose: 100.0 mg/kg/injection, schedule: Q01DX009 (ip), vehicle: acetone 95 % of control | [16] 91 % of control | [3] 96 % of control | dose: 200.0 mg/kg/injection, schedule: Q01DX009 (ip), vehicle: acetone 97 % of control | [17] 96 % of control | [4] 92 % of control | [18] 89 % of control

CC(O)CC(=O)NN (stereo unspecified)
inactive: [2] 98 % of control | [3] 100 % of control | [4] 93 % of control

CC(C)NNC(=O)C(N)CO (stereo unspecified)
inactive: dose: 25.0 mg/kg/injection, schedule: Q01DX009 (ip), vehicle: saline 91 % of control | dose: 50.0 mg/kg/injection, schedule: Q01DX009 (ip), vehicle: saline 97 % of control | dose: 100.0 mg/kg/injection, schedule: Q01DX009 (ip), vehicle: saline 105 % of control | dose: 200.0 mg/kg/injection, schedule: Q01DX009 (ip), vehicle: saline 97 % of control | dose: 400.0 mg/kg/injection, schedule: Q01DX009 (ip), vehicle: saline 107 % of control
